Measured values published in patent US9149536B2, “Conjugated antimicrobial agents” (priority 2009, dated 2015).
In brackets after ≈: the same amount, converted by molar mass. Like-named read-outs stand apart in the source and are kept apart here.

Assays:
B. subtilis ATCC 6633 [1] = assay: MIC, double-microdilution, B. subtilis ATCC 6633; type: cell-based; conditions: Table 4
E. coli DNA gyrase = E. coli DNA gyrase (Escherichia coli, UniProt P0AES4+P0AES6)
MRSA ATCC 43300 = assay: microbe, parasite or virus in culture; type: cell-based, S. aureus
B. subtilis ATCC 6633 [2] = assay: microbe, parasite or virus in culture; type: cell-based; conditions: for MIC: Bacillus subtilis
Description: (§1) In parallel, MIC evolution during these subcultures was compared concomitantly with each new generation, using bacteria harvested from control wells (wells cultured without antimicrobial agent from the previous generation). The relative MIC was calculated for each experiment from the ratio of MIC obtained for a given subculture to that obtained for first-time exposure.

E. coli ATCC 35218 = assay: microbe, parasite or virus in culture; type: cell-based; conditions: for MIC: Escherichia coli
Description: as §1

APH(3′)-IIIa enzyme = molecular target: T1, APH(3′)-IIIa enzyme (Enterococcus faecalis, UniProt P0A3Y5); type: biochemical; conditions: compound as substrate of APH(3′)-IIIa
T1 construct: made in house; host or cells: E. coli BL21 carrying pETSACG1 (inferred)

[3] = tested on: bacterial protein synthesis; assay: In vitro coupled transcription/translation assay, E. coli S30 extract; type: biochemical; conditions: luciferase readout
Description: Protein translation inhibition by the different compounds was quantified in a coupled transcription/translation assay by using E. coli S30 extracts for circular DNA with the pBEST/uc plasmid (Promega), according to the manufacturer's protocol.
Translation reactions (25 μl) that contained variable concentrations of the tested compound were incubated at 37° C. for 60 minutes, cooled on ice for 5 minutes, and diluted with a dilution reagent (tris-phosphate buffer (25 mM, pH 7.8), DTT (2 mM), 1,2-diaminocyclohexanetetraacetate (2 mM), glycerol (10%), Triton X-100 (1%) and BSA (1 mg/ml)) into 96-well plates. The luminescence was measured immediately after the addition of the Luciferase Assay Reagent (50 μl; Promega), and the light emission was recorded with a Victor3™ Plate Reader (Perkin-Elmer). The concentration of half-maximal inhibition (IC50) was obtained from fitting concentration-response curves to the data of at least two independent experiments by using Grafit 5 software (Leatherbarrow, R. J. Erithacus Software Ltd: Horley, U.K., 2001).
(§2) Relaxation assays were conducted with E. coli TopoIV.

E. coli AG100B = assay: MIC, double-microdilution, E. coli AG100B; type: cell-based, Escherichia coli; conditions: kanamycin resistant, APH(3′)-I
Excerpt: AG100B and AG100A are two kanamycin resistant Escherichia coli strains expressing APH(3′)-I aminoglycoside resistance enzyme.

E. coli R477-100 = assay: MIC, double-microdilution, E. coli R477-100; type: cell-based, Escherichia coli
E. coli TopoIV = molecular target: T2, E. coli TopoIV (Escherichia coli, UniProt P0AFI2+P20083); assay: TopoIV relaxation assay; type: biochemical
T2 construct: purchased Inspiralis Ltd
Description: DNA relaxation activity was assayed with supercoiled pBR322 DNA as a substrate (Inspiralis Ltd) according to the manufacturer's protocol. The standard reaction mixture (20 μl) contained 40 mM HEPES-KOH pH 7.6, 100 mM potassium glutamate, 10 mM Mg(OAc)2, 10 mM dithiothreitol, 1 mM ATP, 50 μg/ml albumin, 5 ng/μl […] pBR322, and TopoIV protein. The reaction mixture was incubated at 37° C. for 30 minutes, and then was terminated by addition of 2 μl 0.5 M EDTA, 3.5 μl loading dye and 20 μl chloroform/isoamyl alcohol (24:1) mixture. […] One unit of relaxation activity was defined as the amount of TopoIV required to relax 0.1 μg of plasmid in 30 minutes.
as §2

E. coli ATCC 25922 = assay: MIC, double-microdilution, E. coli ATCC 25922; type: cell-based, Escherichia coli; conditions: Table 4
E. coli AG100A = assay: MIC, double-microdilution, E. coli AG100A; type: cell-based, Escherichia coli; conditions: kanamycin resistant, APH(3′)-I
E. coli BL21/pETSACG1 = assay: microbe, parasite or virus in culture; type: cell-based
Description: (§3) For this purpose, exemplary conjugates, according to some embodiments of the present invention, were tested against five isogenic E. coli strains. E. coli (pSF815) and E. coli (pET9d) are laboratory resistant strains derived by transformation of E. coli XL1 blue (background strain) with the pSF815 and pET9d plasmids, respectively. […] The last two isogenic strains used were E. coli BL21 (background strain) and E. coli (pETSACG1). […] These three enzymes are among the most prevalent modes of resistance found in aminoglycosides resistance strains.
(§4) The MIC ratios were calculated by dividing the MIC value against resistant strain to that against the respective background strain.

E. coli BL21 = assay: microbe, parasite or virus in culture; type: cell-based; conditions: Escherichia coli, BL21; background strain
Description: as §3, §4

E. coli XL1 blue = assay: microbe, parasite or virus in culture; type: cell-based; conditions: Escherichia coli, XL1BLUE; background strain; read-out: MIC XL1 blue
Description: as §3, §4

E. coli XL1 blue/pET9d = assay: microbe, parasite or virus in culture; type: cell-based
Description: as §3, §4

E. coli XL1 blue/pSF815 = assay: microbe, parasite or virus in culture; type: cell-based; conditions: Escherichia coli, XL1BLUE/PSF815, read-out: MIC XL1 blue/pSF815
Description: as §3, §4

[4] = MIC of subculture to MIC upon first exposure
[5] = relaxation assay, supercoiled pBR322
[6] = MIC resistant strain divided by MIC background strain

Sequence of E. coli DNA gyrase (P0AES4 whole entry, one chain of several): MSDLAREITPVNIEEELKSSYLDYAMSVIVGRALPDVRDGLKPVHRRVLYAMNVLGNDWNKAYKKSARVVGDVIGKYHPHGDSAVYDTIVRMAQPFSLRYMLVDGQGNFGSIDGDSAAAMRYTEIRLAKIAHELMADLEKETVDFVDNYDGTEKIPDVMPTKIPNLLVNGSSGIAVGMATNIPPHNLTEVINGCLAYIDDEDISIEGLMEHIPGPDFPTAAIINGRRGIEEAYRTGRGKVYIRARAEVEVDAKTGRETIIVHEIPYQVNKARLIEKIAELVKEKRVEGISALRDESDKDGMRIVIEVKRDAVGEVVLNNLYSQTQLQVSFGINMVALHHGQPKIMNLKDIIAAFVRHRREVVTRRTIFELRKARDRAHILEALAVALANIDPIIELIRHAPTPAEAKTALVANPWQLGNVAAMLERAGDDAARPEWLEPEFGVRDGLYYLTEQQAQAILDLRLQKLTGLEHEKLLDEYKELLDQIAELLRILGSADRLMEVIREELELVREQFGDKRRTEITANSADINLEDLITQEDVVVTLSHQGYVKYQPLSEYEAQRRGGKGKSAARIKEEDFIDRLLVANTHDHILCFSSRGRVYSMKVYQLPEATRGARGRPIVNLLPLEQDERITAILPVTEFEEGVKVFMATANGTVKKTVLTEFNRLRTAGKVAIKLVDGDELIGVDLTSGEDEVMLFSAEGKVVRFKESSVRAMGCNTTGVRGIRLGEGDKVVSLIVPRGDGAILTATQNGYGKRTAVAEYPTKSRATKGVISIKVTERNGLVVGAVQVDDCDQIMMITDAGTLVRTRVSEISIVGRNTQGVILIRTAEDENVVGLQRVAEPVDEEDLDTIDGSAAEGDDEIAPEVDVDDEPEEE
T2 sequence (P0AFI2 whole entry): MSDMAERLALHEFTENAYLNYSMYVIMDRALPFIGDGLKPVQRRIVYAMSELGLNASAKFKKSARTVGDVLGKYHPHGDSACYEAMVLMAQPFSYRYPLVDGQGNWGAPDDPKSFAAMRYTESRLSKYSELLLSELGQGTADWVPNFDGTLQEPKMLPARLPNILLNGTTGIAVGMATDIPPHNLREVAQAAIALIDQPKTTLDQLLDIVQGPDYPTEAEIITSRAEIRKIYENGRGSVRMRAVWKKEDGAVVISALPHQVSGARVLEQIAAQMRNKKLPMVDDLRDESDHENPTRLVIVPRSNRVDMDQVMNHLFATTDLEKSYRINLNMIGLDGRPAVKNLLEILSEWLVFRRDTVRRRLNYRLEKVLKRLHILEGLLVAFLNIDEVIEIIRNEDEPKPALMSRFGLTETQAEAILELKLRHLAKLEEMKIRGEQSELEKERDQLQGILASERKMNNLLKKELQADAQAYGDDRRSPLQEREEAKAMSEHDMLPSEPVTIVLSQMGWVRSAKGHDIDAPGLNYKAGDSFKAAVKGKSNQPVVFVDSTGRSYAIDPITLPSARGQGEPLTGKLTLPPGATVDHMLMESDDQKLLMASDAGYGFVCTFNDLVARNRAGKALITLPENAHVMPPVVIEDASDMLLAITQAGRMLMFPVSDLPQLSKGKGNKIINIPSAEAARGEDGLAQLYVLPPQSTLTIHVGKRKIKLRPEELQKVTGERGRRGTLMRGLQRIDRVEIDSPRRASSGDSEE
T2 sequence (P20083 whole entry): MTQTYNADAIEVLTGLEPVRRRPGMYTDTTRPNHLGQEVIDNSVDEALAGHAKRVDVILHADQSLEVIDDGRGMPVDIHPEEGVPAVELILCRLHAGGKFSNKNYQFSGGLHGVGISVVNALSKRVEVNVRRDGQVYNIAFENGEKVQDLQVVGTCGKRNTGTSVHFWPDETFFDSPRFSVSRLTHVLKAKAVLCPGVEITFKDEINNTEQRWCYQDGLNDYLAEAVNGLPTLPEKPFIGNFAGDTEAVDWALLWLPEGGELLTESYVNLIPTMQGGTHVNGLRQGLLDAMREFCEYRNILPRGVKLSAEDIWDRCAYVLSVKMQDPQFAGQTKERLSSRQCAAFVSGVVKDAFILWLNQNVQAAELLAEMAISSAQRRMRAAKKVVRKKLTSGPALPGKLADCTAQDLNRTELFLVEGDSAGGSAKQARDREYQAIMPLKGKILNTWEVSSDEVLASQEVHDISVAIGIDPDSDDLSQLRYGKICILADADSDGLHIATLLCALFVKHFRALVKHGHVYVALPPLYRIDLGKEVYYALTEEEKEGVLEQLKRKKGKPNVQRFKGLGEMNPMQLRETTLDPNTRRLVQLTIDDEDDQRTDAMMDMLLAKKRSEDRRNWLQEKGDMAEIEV
T1 sequence (P0A3Y5 whole entry): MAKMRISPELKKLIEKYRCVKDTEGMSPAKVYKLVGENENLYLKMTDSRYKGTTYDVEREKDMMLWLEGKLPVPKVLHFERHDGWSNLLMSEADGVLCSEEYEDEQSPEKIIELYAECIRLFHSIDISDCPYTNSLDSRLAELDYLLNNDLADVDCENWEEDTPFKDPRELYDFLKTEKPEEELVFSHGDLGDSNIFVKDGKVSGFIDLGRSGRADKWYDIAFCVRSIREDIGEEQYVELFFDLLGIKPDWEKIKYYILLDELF

NC[C@@H]1O[C@H](O[C@H]2[C@@H](O)[C@H](O[C@@H]3[C@@H](O)[C@H](N)C[C@H](N)[C@H]3O[C@H]3O[C@H](CN)[C@@H](O)[C@H](O)[C@H]3N)O[C@@H]2CO)[C@H](N)[C@@H](O)[C@@H]1O [NeoB, neomycin B, reference compound]
MIC (B. subtilis ATCC 6633 [1]; Bacillus subtilis, ATCC6633, read-out: MIC B. subtilis ATCC 6633): 1.5 µg/mL (≈ 2.44 µM)
DNA gyrase IC50 (E. coli DNA gyrase; supercoiling assay, relaxed pBR322): inactive
MIC (MRSA ATCC 43300; Staphylococcus aureus, read-out: MIC MRSA ATCC 43300): 384 µg/mL (≈ 625 µM)
MIC (B. subtilis ATCC 6633 [2]; ATCC6633, read-out: MIC 1st passage, B.subtilis ATCC 6633): 0.75 µg/mL (≈ 1.22 µM)
MIC (B. subtilis ATCC 6633 [2]; ATCC6633, read-out: MIC 15th passage, B.subtilis ATCC 6633): 6 µg/mL (≈ 9.76 µM)
Ratio (relative MIC) 15th/1st passage, B.subtilis ATCC 6633 (B. subtilis ATCC 6633 [2]; [4]): 8
MIC (E. coli ATCC 35218; ATCC35218, read-out: MIC 1st passage, E.coli ATCC 35218): 12 µg/mL (≈ 19.5 µM)
MIC (E. coli ATCC 35218; ATCC35218, read-out: MIC 15th passage, E.coli ATCC 35218): 48 µg/mL (≈ 78.1 µM)
Ratio (relative MIC) 15th/1st passage, E.coli ATCC 35218 (E. coli ATCC 35218; [4]): 4
kcat (APH(3′)-IIIa enzyme): 2.4 ± 0.1 s⁻¹
IC50 [3]: 10.5 ± 0.1 µM
MIC (E. coli AG100B; Escherichia coli, AG100B, read-out: MIC E. coli AG100B, Table 4): 384 µg/mL (≈ 625 µM)
MIC (E. coli R477-100; Escherichia coli, R477100, read-out: MIC E. coli R477-100): 24 µg/mL (≈ 39 µM)
TopoIV IC50 (E. coli TopoIV; [5]): inactive
MIC (E. coli ATCC 25922; Escherichia coli, ATCC25922, read-out: MIC E. coli ATCC 25922): 48 µg/mL (≈ 78.1 µM)
MIC (E. coli AG100A; Escherichia coli, AG100A, read-out: MIC E. coli AG100A, Table 4): 96 µg/mL (≈ 156 µM)
MIC (E. coli BL21/pETSACG1; Escherichia coli, BL21/PETSACG1, read-out: MIC BL21/pETSACG1): 48 µg/mL (≈ 78.1 µM)
MIC ratio BL21/pETSACG1 to BL21 (E. coli BL21/pETSACG1; [6]): 8
MIC (E. coli BL21): 6 µg/mL (≈ 9.76 µM)
MIC (E. coli XL1 blue): 6 µg/mL (≈ 9.76 µM)
MIC (E. coli XL1 blue/pET9d; Escherichia coli, XL1BLUE/PET9D, read-out: MIC XL1 blue/pET9d): 96 µg/mL (≈ 156 µM)
MIC ratio XL1 blue/pET9d to XL1 blue (E. coli XL1 blue/pET9d; [6]): 16
MIC (E. coli XL1 blue/pSF815): > 384 µg/mL

NCC1OC(OC2C(C(=O)Nc3ccc(-c4cn(CC(O)CN5CCN(c6cc7c(cc6F)c(=O)c(C(=O)O)cn7C6CC6)CC5)nn4)cc3)OC(OC3C(O)C(N)CC(N)C3OC3OC(CN)C(O)C(O)C3N)C2O)C(N)C(O)C1O (stereo not shown) [Compound 1f, N-(4-(1-(2-hydroxy-3-(ciprofloxacin)propyl)-1H-1,2,3-triazol-4-yl)-5″-phenyl)neomycin carboxamide]
MIC B. subtilis ATCC 6633 (B. subtilis ATCC 6633 [1]): 6 µg/mL (≈ 5.18 µM)
IC50 fold superior than that of Cipro in DNA gyrase assay (E. coli DNA gyrase; general statements name DNA gyrase and TopoIV together): 18 fold
IC50 (E. coli DNA gyrase; read-out: DNA gyrase IC50, supercoiling assay, relaxed pBR322): 0.073 ± 0.005 µM
MIC MRSA ATCC 43300 (MRSA ATCC 43300; Table 4): 24 µg/mL (≈ 20.7 µM)
IC50 [3]: 2.2 ± 0.6 µM
MIC E. coli AG100B (E. coli AG100B; Table 4): 6 µg/mL (≈ 5.18 µM)
MIC E. coli R477-100 (E. coli R477-100; Table 4): 6 µg/mL (≈ 5.18 µM)
IC50 fold superior than Cipro in TopoIV assay (E. coli TopoIV): 19 fold
IC50 (E. coli TopoIV; [5]): 0.58 ± 0.04 µM
MIC E. coli ATCC 25922 (E. coli ATCC 25922): 3 µg/mL (≈ 2.59 µM)
MIC E. coli AG100A (E. coli AG100A; Table 4): 0.75 µg/mL (≈ 0.648 µM)
